From US20240199587A1, “HETEROCYCLIC COMPOUNDS” (Hoffmann-La Roche Inc., priority 2021, published 2024)

Biological target: T1, MAGL (Homo sapiens, UniProt Q99685)
T1 sequence (Q99685 1-303): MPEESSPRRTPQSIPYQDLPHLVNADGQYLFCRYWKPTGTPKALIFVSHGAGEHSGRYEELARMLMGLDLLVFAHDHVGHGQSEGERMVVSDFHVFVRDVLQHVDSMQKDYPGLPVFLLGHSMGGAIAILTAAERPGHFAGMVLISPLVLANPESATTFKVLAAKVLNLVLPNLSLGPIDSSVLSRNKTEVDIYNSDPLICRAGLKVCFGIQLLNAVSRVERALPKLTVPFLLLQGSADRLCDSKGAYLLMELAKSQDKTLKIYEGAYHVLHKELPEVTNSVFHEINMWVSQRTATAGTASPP
Assay: 2-AG assay (MAGL inhibitory activity, hydrolysis of 2-arachidonoylglycerol to arachidonic acid followed by mass spectrometry)
Assay type: biochemical
Conditions: 8 μM 2-arachidonoylglycerol, 15 min pre-incubation, 30 min incubation at RT, RapidFire MS readout
Summary of the method: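 Human MAGL ([…] final) pre-incubated 15 min at RT with compound in 50 mM TRIS, 1 mM EDTA, 0.01% Tween-20, 2.5% DMSO; 8 μM 2-AG then added for 30 min at RT. Acetonitrile quench with d8-arachidonic acid; arachidonic acid measured by RapidFire SPE–MS/MS, activity from arachidonic acid/d8 ratio.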

Row | Molecule | IC50 [nM]
1 | O=C(N1CC2(CCN(Cc3ccc(C(F)(F)F)nc3)CC2)C1)N1CC2(CC(n3cnc(C4(O)CC4)n3)C2)C1 [Example 392, [6-[3-(1-hydroxycyclopropyl)-1,2,4-triazol-1-yl]-2-azaspiro[3.3]heptan-2-yl]-[7-[[6-(trifluoromethyl)-3-pyridyl]methyl]-2,7-diazaspiro[3.5]nonan-2-yl]methanone] | 197
2 | O=C(N1CC(OCc2ccc(S(=O)(=O)C(F)(F)F)cc2F)C1)N1CC2(CC(n3cnc(C4(O)CC4)n3)C2)C1 [Example 398, [3-[[2-fluoro-4-(trifluoromethylsulfonyl)phenyl]methoxy]azetidin-1-yl]-[6-[3-(1-hydroxycyclopropyl)-1,2,4-triazol-1-yl]-2-azaspiro[3.3]heptan-2-yl]methanone] | 34.8
3 | Cc1cc(C(=O)N2CC3(CC(n4cnc(Cl)n4)C3)C2)cnc1OC(C)(C)C(F)(F)F [Example 175, [6-(3-chloro-1,2,4-triazol-1-yl)-2-azaspiro[3.3]heptan-2-yl]-[5-methyl-6-(2,2,2-trifluoro-1,1-dimethyl-ethoxy)-3-pyridyl]methanone] | 221
4 | CC(C)(C)c1nc(-c2ccc(C(=O)N3CC4(CC(n5cnc(C(F)(F)F)c5)C4)C3)cc2)no1 [Example 158, [4-(5-tert-butyl-1,2,4-oxadiazol-3-yl)phenyl]-[6-[4-(trifluoromethyl)imidazol-1-yl]-2-azaspiro[3.3]heptan-2-yl]methanone] | 69.1
5 | O=C(N1CC(c2ccc(N3CC[C@H](C(F)(F)F)C3)nc2)C1)N1CC2(CC(n3cnc(C(F)(F)F)n3)C2)C1 [Example 426, [3-[6-[(3S)-3-(trifluoromethyl)pyrrolidin-1-yl]-3-pyridyl]azetidin-1-yl]-[6-[3-(trifluoromethyl)-1,2,4-triazol-1-yl]-2-azaspiro[3.3]heptan-2-yl]methanone] | 0.7
6 | N-[2-[6-[3-(1- hydroxycyclopropyl)- 1,2,4-triazol-1-yl]-2- azaspiro[3.3]heptane-2- carbonyl]-2- azaspiro[3.3]heptan-6- yl]-3- (trifluoromethyl) benzenesulfonamide [Example 401] | 9.45
7 | CC(C)(C)c1nc(-c2ccc(C(=O)N3CC4(CC(n5cc(F)cn5)C4)C3)cc2)no1 [Example 15, [4-(5-tert-butyl-1,2,4-oxadiazol-3-yl)phenyl]-[6-(4-fluoropyrazol-1-yl)-2-azaspiro[3.3]heptan-2-yl]methanone] | 2670
8 | CNC(=O)[C@H](c1ccc(F)cc1)N1CCN(C(=O)N2CC3(CC(n4cnc(C5CC5)n4)C3)C2)CC1 [Example 330, (2S)-2-[4-[6-(3-cyclopropyl-1,2,4-triazol-1-yl)-2-azaspiro[3.3]heptane-2-carbonyl]piperazin-1-yl]-2-(4-fluorophenyl)-N-methyl-acetamide] | 744
9 | O=C(N1CC(c2ccc(C3CC3)cc2F)C1)N1CC2(CC(n3cnc(C4CC4)n3)C2)C1 [Example 38, [3-(4-cyclopropyl-2-fluoro-phenyl)azetidin-1-yl]-[6-(3-cyclopropyl-1,2,4-triazol-1-yl)-2-azaspiro[3.3]heptan-2-yl]methanone] | 0.6
10 | O=C(N1CC(Oc2ccc(Cl)cc2Cl)C1)N1CC2(CC(n3cnc(C4CC4)n3)C2)C1 [Example 98, (6-(3-cyclopropyl-1H-1,2,4-triazol-1-yl)-2-azaspiro[3.3]heptan-2-yl)(3-(2,4-dichlorophenoxy)azetidin-1-yl)methanone] | 2.8
11 | CP(C)(=O)c1ccc(CC2CC3(C2)CN(C(=O)N2CC4(CC(n5cnc(C(F)(F)F)n5)C4)C2)C3)nc1 [Example 377, [6-[(5-dimethylphosphoryl-2-pyridyl)methyl]-2-azaspiro[3.3]heptan-2-yl]-[6-[3-(trifluoromethyl)-1,2,4-triazol-1-yl]-2-azaspiro[3.3]heptan-2-yl]methanone] | 392
12 | CC(C)(C)c1nc(-c2ccc(C(=O)N3CC4(CC(n5cc6c(n5)CCCC6)C4)C3)cc2)no1 [Example 12, [4-(5-tert-butyl-1,2,4-oxadiazol-3-yl)phenyl]-[6-(4,5,6,7-tetrahydroindazol-2-yl)-2-azaspiro[3.3]heptan-2-yl]methanone] | 36.7
13 | Cc1cc(C(=O)N2CC3(CC(n4cnc(C5CC5)c4)C3)C2)cnc1OCC1(C(F)(F)F)CC1 [Example 25, [6-(4-cyclopropylimidazol-1-yl)-2-azaspiro[3.3]heptan-2-yl]-[5-methyl-6-[[1-(trifluoromethyl)cyclo-propyl]methoxy]-3-pyridyl]methanone] | 12.2
14 | O=C(N1CC(c2cnc(N3CC(C(F)(F)F)C3)nc2)C1)N1CC2(CC(n3cnc(C4CC4)n3)C2)C1 [Example 479, [6-(3-cyclopropyl-1,2,4-triazol-1-yl)-2-azaspiro[3.3]heptan-2-yl]-[3-[2-[3-(trifluoromethyl)azetidin-1-yl]pyrimidin-5-yl]azetidin-1-yl]methanone] | 7.5
15 | O=C(N1CC(c2ccc(NC3(C(F)(F)F)CC3)nc2)C1)N1CC2(CC(n3cnc(C4(O)CC4)n3)C2)C1 [Example 492, [6-[3-(1-hydroxycyclopropyl)-1,2,4-triazol-1-yl]-2-azaspir[3.3]heptan-2-yl]-[3-[6-[[1-(trifluoromethyl)cyclopropyl]amino]-3-pyridyl]azetidin-1-yl]methanone] | 11.1

More lines, in order of falling IC50, values ahead:

Row | IC50 [nM] | Molecule
16 | 3350 | CP(C)(=O)c1ccc(CN2CC3(C2)CN(C(=O)N2CC4(CC(n5cnc(C(F)(F)F)n5)C4)C2)C3)cc1 [Example 379, [6-[(4-dimethyl-phosphorylphenyl)methyl]-2,6-diazaspiro[3.3]heptan-2-yl]-[6-[3-(trifluoromethyl)-1,2,4-triazol-1-yl]-2-azaspiro[3.3]heptan-2-yl]methanone]
17 | 2820 | Cc1cc(C(=O)N2CC3(CC(n4cnc(C5CC5)n4)C3)C2)nnc1OCC1(C(F)(F)F)CC1 [Example 32, [6-(3-cyclopropyl-1,2,4-triazol-1-yl)-2-azaspiro[3.3]heptan-2-yl]-[5-methyl-6-[[1-(trifluoromethyl)cyclo-propyl]methoxy]pyridazin-3-yl] methanone]
18 | 1830 | O=C(N1CC2(CC(n3cnc(C4CC4)n3)C2)C1)N1CC2(C1)CN(C(=O)C(F)(F)F)C2 [Example 337, 1-[2-[6-(3-cyclopropyl-1,2,4-triazol-1-yl)-2-azaspiro[3.3]heptane-2-carbonyl]-2,6-diazaspiro[3.3]heptan-6-yl]-2,2,2-trifluoro-ethanone]
19 | 134 | Cc1cc(C2CC2)n(C23CC(C4CN(C(=O)N5CC6(CC(n7cnc(C8(O)CC8)n7)C6)C5)C4)(C2)C3)n1 [Example 355, [3-[3-(5-cyclopropyl-3-methyl-pyrazol-1-yl)-1-bicyclo[1.1.1]pentanyl]azetidin-1-yl]-[6-[3-(1-hydroxycyclopropyl)-1,2,4-triazol-1-yl]-2-azaspiro[3.3]heptan-2-yl]methanone]
20 | 33.8 | O=C(N1CCC(CNS(=O)(=O)c2ccc(Cl)cc2)CC1)N1CC2(CC(n3cnc(C4CC4)n3)C2)C1 [Example 271]
21 | 17.2 | O=C(N1CC2(CC(n3cnc(C4CC4)n3)C2)C1)N1CC2(C1)CN(S(=O)(=O)c1ccc(C(F)(F)F)nc1)C2 [Example 255, [6-(3-cyclopropyl-1,2,4-triazol-1-yl)-2-azaspiro[3.3]heptan-2-yl]-[2-[[6-(trifluoromethyl)-3-pyridyl]sulfonyl]-2,6-diazaspiro[3.3]heptan-6-yl]methanone]
22 | 14.4 | O=C(N1CC(c2ccc(N3CC[C@H](C(F)(F)F)C3)nc2)C1)N1CC2(CC(n3cnc(C4(O)CC4)n3)C2)C1 [Example 397, [6-[3-(1-hydroxycyclopropyl)-1,2,4-triazol-1-yl]-2-azaspiro[3.3]heptan-2-yl]-[3-[6-[(3S)-3-(trifluoromethyl)pyrrolidin-1-yl]-3-pyridyl]azetidin-1-yl]methanone]
23 | 9.7 | O=C(N1CC(OCc2ccc(S(F)(F)(F)(F)F)cc2)C1)N1CC2(CC(n3cnc(C4CC4)c3)C2)C1 [Example 104, [6-(4-cyclopropylimidazol-1-yl)-2-azaspiro[3.3]heptan-2-yl]-[3-[[4-(pentafluoro-λ^6-sulfanyl)phenyl]methoxy]azetidin-1-yl]methanone]
24 | 4.3 | O=C(N1C[C@H]2C[C@H](Oc3ccc(OC(F)(F)F)cc3)C[C@H]2C1)N1CC2(CC(n3cnc(C4CC4)n3)C2)C1 [Example 134, [6-(3-cyclopropyl-1,2,4-triazol-1-yl)-2-azaspiro[3.3]heptan-2-yl]-[rac-(3aS,6aR)-5-[4-(trifluoromethoxy)phenoxy]-3,3a,4,5,6,6a-hexahydro-1H-cyclopenta[c]pyrrol-2-yl]methanone]
25 | 1.26 | O=C(N1CC(c2cnc(N3CC[C@@H](C(F)(F)F)C3)nc2)C1)N1CC2(CC(n3cnc(C4CC4)n3)C2)C1 [Example 482, [6-(3-cyclopropyl-1,2,4-triazol-1-yl)-2-azaspiro[3.3]heptan-2-yl]-[3-[2-[(3R)-3-(trifluoromethyl)pyrrolidin-1-yl]pyrimidin-5-yl]azetidin-1-yl]methanone]
26 | 0.93 | CC1(Cc2nnc(-c3ccc(C4CN(C(=O)N5CC6(CC(n7cnc(C8CC8)n7)C6)C5)C4)cc3)[nH]2)CC1 [Example 448, [6-(3-cyclopropyl-1,2,4-triazol-1-yl)-2-azaspiro[3.3]heptan-2-yl]-[3-[4-[5-[(1-methylcyclopropyl)methyl]-4H-1,2,4-triazol-3-yl]phenyl]azetidin-1-yl]methanone]
